From patent publication US10414811B2, “Protease-resistant lipidated GLP-1 analogs” (MEDIMMUNE LIMITED, priority 2015, dated 2019)
Where two headings read alike, the source gives them in different places. Numbered stars: 1 amine (or outer) side, 2 acyl side, 3 side chain; on linkers, the order of the positions; unused ones are H or OH. Square brackets hold non-standard residues; d marks the D form. Side chains are listed from the residue outwards. Peptide text beside a SMILES is read from it. * marks the point of attachment. C18 diacid = O=C(O)CCCCCCCCCCCCCCCCC(=O)*; γGlu = O=C(O)[C@H](CCC(=O)[*:2])N[*:1]; Palmitoyl = CCCCCCCCCCCCCCCC(=O)*; αMeF = C[C@](N)(Cc1ccccc1)C(=O)O; αMeK = C[C@](N)(CCCCN)C(=O)O; Lauroyl = CCCCCCCCCCCC(=O)*; αMeS = C[C@](N)(CO)C(=O)O; AEEA = NCCOCCOCC(=O)O; Aib = CC(C)(N)C(=O)O

Legend:
Type in all cases: cell-based
[1] = biological target: T1, human GLP-1 receptor (GLP-1R) (Homo sapiens, UniProt P43220); test: cAMP assay, human GLP-1R cells
T1 construct: expressed in transfected cells
T1 sequence (P43220 24-463): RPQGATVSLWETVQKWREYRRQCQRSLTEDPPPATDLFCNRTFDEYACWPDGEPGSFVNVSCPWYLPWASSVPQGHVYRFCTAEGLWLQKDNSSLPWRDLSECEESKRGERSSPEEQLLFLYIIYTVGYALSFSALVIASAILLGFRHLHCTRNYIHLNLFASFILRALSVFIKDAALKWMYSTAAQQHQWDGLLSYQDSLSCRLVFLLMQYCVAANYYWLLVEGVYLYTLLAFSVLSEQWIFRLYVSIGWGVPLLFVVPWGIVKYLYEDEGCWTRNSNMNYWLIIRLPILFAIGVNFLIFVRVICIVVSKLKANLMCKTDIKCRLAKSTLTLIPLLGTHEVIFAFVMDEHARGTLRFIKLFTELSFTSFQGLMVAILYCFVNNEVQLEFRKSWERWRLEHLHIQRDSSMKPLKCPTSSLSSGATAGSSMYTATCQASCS
Method in brief: (§1)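 Peptide-stimulated cAMP measured by two-step HTRF after a 30 min room-temperature incubation with receptor-expressing cells (hGLP-1R, hGIPR at 1×10^5 cells/ml; hGCGR at 2×10^5 cells/ml). Duplicate dilutions; EC50 from 4-parameter logistic fit of % Delta F.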

[2] = biological target: T2, human glucagon receptor (GCGR) (Homo sapiens, UniProt P47871); test: cAMP assay, human GCGR cells
T2 construct: expressed in transfected cells
T2 sequence (P47871 26-477): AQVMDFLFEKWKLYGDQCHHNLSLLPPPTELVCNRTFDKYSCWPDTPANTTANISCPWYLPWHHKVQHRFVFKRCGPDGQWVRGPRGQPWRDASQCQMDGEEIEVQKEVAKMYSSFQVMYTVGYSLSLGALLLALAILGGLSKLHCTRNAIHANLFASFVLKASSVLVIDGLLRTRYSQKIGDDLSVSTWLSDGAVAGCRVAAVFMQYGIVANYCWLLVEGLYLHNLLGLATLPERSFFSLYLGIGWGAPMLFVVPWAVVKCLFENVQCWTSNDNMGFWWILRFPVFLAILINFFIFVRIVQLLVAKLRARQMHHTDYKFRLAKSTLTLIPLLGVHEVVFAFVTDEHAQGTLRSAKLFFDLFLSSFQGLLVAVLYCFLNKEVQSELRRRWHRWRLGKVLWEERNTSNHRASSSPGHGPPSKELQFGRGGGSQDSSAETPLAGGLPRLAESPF
Method in brief: as §1

[3] = biological target: T3, human glucose-dependent insulinotropic peptide receptor (GIPR) (Homo sapiens, UniProt P48546); test: cAMP assay, human GIPR cells
T3 construct: expressed in transfected cells
T3 sequence (P48546 22-466): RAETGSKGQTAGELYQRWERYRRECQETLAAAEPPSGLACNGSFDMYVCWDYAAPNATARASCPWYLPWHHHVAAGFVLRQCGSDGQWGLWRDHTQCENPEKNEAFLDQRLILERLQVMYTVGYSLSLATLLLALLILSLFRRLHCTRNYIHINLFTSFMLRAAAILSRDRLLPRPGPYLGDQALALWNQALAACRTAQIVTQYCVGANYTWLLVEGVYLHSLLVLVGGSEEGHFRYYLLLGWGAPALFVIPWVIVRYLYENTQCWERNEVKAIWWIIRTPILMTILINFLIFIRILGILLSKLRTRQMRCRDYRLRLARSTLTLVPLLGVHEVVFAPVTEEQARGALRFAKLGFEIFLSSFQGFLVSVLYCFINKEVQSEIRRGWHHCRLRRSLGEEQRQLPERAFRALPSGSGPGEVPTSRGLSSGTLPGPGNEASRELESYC
Method in brief: as §1

[4] = cAMP assay, first determination (n1), read-out: Primary assay EC50 GLP-1R n1
[5] = cAMP assay, second determination (n2), read-out: Primary assay EC50 GLP-1R n2
[6] = mean of n1 and n2, read-out: Mean pM GLP-1R
[7] = cAMP assay, first determination (n1), read-out: Primary assay EC50 Gluc-R (n1)
[8] = cAMP assay, second determination (n2), read-out: Primary assay EC50 Gluc-R (n2)
[9] = cAMP assay, first determination (n1), read-out: Primary assay EC50 GIP-R (n1)
[10] = cAMP assay, second determination (n2), read-out: Primary assay EC50 GIP-R (n2)

| EC50 [1, 4] | EC50 [1, 5] | EC50 [1, 6] | EC50 [2, 7] | EC50 [2, 8] | EC50 [3, 9] | EC50 [3, 10] | EC50 ([1]; tris-lipidated peptides, mean of n1 and n2, read-out: Primary assay EC50 Mean pM GLP-1R) | EC50 ([1]; tris-lipidated peptides, replicate n1, read-out: Primary assay EC50 GLP-1R n1) | EC50 ([1]; tris-lipidated peptides, replicate n2, read-out: Primary assay EC50 GLP-1R n2) | EC50 ([2]; tris-lipidated peptides, first replicate, read-out: Primary assay EC50 Gluc-R (n1)) | EC50 ([3]; tris-lipidated peptides, first replicate, read-out: Primary assay EC50 GIP-R (n1)) | Structure (SMILES) |
| --- | --- | --- | --- | --- | --- | --- | --- | --- | --- | --- | --- | --- |
| 370 pM | 200 pM | 283 pM | ≥ 27 nM | ≥ 27 nM | ≥ 27 nM | ≥ 27 nM |  |  |  |  |  | CCCCCCCCCCCCCCCC(=O)N[C@@H](CCC(=O)NCCCC[C@H](NC(=O)[C@H](C)NC(=O)[C@H](CCC(=O)O)NC(=O)CNC(=O)[C@H](CCC(=O)O)NC(=O)[C@H](CC(C)C)NC(=O)[C@](C)(Cc1ccccc1)NC(=O)[C@H](CO)NC(=O)[C@](C)(CO)NC(=O)[C@@H](NC(=O)[C@H](CC(=O)O)NC(=O)[C@H](CO)NC(=O)[C@@H](NC(=O)[C@](C)(Cc1ccccc1)NC(=O)[C@H](CO)NC(=O)CNC(=O)[C@H](CCC(=O)O)NC(=O)C(C)(C)NC(=O)[C@@H](N)Cc1c[nH]cn1)[C@@H](C)O)C(C)C)C(=O)N[C@@](C)(CCCCN)C(=O)N[C@@H](CCC(=O)O)C(=O)N[C@@](C)(Cc1ccccc1)C(=O)N[C@H](C(=O)N[C@@H](C)C(=O)N[C@@](C)(Cc1ccccc1)C(=O)N[C@H](C(=O)N[C@H](C(=O)N[C@@](C)(CCCCN)C(=O)NCC(=O)NCC(N)=O)C(C)C)C(C)C)[C@@H](C)CC)C(=O)O [compound 81] (H-H[Aib]EGS[αMeF]TSDV[αMeS]S[αMeF]LEGEAK([γGlu-Palmitoyl])[αMeK]E[αMeF]IA[αMeF]VV[αMeK]GG-NH2; N-terminus assumed) |
| 140 pM | 320 pM | 228 pM | ≥ 28 nM | ≥ 28 nM | ≥ 28 nM | ≥ 28 nM |  |  |  |  |  | CCCCCCCCCCCCCCCC(=O)N[C@@H](CCC(=O)NCCCC[C@H](NC(=O)[C@H](CO)NC(=O)CNC(=O)[C@H](CCC(=O)O)NC(=O)C(C)(C)NC(=O)[C@@H](N)Cc1c[nH]cn1)C(=O)N[C@H](C(=O)N[C@@H](CO)C(=O)N[C@@H](CC(=O)O)C(=O)N[C@H](C(=O)N[C@@](C)(CO)C(=O)N[C@@H](CO)C(=O)N[C@@](C)(Cc1ccccc1)C(=O)N[C@@H](CC(C)C)C(=O)N[C@@H](CCC(=O)O)C(=O)NCC(=O)N[C@@H](CCC(=O)O)C(=O)N[C@@H](C)C(=O)N[C@@H](C)C(=O)N[C@@](C)(CCCCN)C(=O)N[C@@H](CCC(=O)O)C(=O)N[C@@](C)(Cc1ccccc1)C(=O)N[C@H](C(=O)N[C@@H](C)C(=O)N[C@@](C)(Cc1ccccc1)C(=O)N[C@H](C(=O)N[C@H](C(=O)N[C@@](C)(CCCCN)C(=O)NCC(=O)NCC(N)=O)C(C)C)C(C)C)[C@@H](C)CC)C(C)C)[C@@H](C)O)C(=O)O [compound 94] |
| ≥ 25000 pM | ≥ 24900 pM |  | ≥ 25 nM | ≥ 24.9 nM | ≥ 25 nM | ≥ 24.9 nM |  |  |  |  |  | CC[C@H](C)[C@H](NC(=O)[C@](C)(Cc1ccccc1)NC(=O)[C@H](CCC(=O)O)NC(=O)[C@](C)(CCCCN)NC(=O)[C@H](C)NC(=O)[C@H](C)NC(=O)[C@H](CCC(=O)O)NC(=O)CNC(=O)[C@H](CCC(=O)O)NC(=O)[C@H](CC(C)C)NC(=O)[C@](C)(Cc1ccccc1)NC(=O)[C@H](CO)NC(=O)[C@](C)(CO)NC(=O)[C@@H](NC(=O)[C@H](CC(=O)O)NC(=O)[C@H](CO)NC(=O)[C@@H](NC(=O)[C@](C)(Cc1ccccc1)NC(=O)[C@H](CO)NC(=O)[C@H](CCCCNC(=O)COCCOCCNC(=O)COCCOCCNC(=O)CC[C@H](NC(=O)CCCCCCCCCCCCCCCCC(=O)O)C(=O)O)NC(=O)[C@H](CCC(=O)O)NC(=O)C(C)(C)NC(=O)[C@@H](N)Cc1c[nH]cn1)[C@@H](C)O)C(C)C)C(=O)N[C@@H](C)C(=O)N[C@@](C)(Cc1ccccc1)C(=O)N[C@H](C(=O)N[C@H](C(=O)N[C@@](C)(CCCCN)C(=O)NCC(=O)NCC(N)=O)C(C)C)C(C)C [compound 125] (H-H[Aib]EK([AEEA-AEEA-γGlu-C18 diacid])S[αMeF]TSDV[αMeS]S[αMeF]LEGEAA[αMeK]E[αMeF]IA[αMeF]VV[αMeK]GG-NH2; N-terminus assumed) |
| 14 pM | 6 pM | 10.2 pM | ≥ 27 nM | ≥ 27 nM | ≥ 27 nM | ≥ 27 nM |  |  |  |  |  | CCCCCCCCCCCC(=O)N[C@@H](CCC(=O)N[C@@H](CCC(=O)NCCCC[C@H](NC(=O)[C@@H](NC(=O)[C@@H](NC(=O)[C@](C)(Cc1ccccc1)NC(=O)[C@H](C)NC(=O)[C@@H](NC(=O)[C@](C)(Cc1ccccc1)NC(=O)[C@H](CCC(=O)O)NC(=O)[C@](C)(CCCCN)NC(=O)[C@H](C)NC(=O)[C@H](C)NC(=O)[C@H](CCC(=O)O)NC(=O)CNC(=O)[C@H](CCC(=O)O)NC(=O)[C@H](CC(C)C)NC(=O)[C@](C)(Cc1ccccc1)NC(=O)[C@H](CO)NC(=O)[C@](C)(CO)NC(=O)[C@@H](NC(=O)[C@H](CC(=O)O)NC(=O)[C@H](CO)NC(=O)[C@@H](NC(=O)[C@](C)(Cc1ccccc1)NC(=O)[C@H](CO)NC(=O)CNC(=O)[C@H](CCC(=O)O)NC(=O)C(C)(C)NC(=O)[C@@H](N)Cc1c[nH]cn1)[C@@H](C)O)C(C)C)[C@@H](C)CC)C(C)C)C(C)C)C(=O)NCC(=O)NCC(N)=O)C(=O)O)C(=O)O [compound 165] |
|  |  |  |  |  |  |  | 93.4 pM | 28.8 pM | 158 pM | 19.7 nM | 19.7 nM | CCCCCCCCCCCC(=O)N[C@@H](CCC(=O)NCCOCCOCC(=O)NCCOCCOCC(=O)NCCCC[C@H](NC(=O)[C@H](CCC(=O)O)NC(=O)[C@H](CCCCNC(=O)COCCOCCNC(=O)COCCOCCNC(=O)CC[C@H](NC(=O)CCCCCCCCCCC)C(=O)O)NC(=O)[C@H](Cc1ccc(O)cc1)NC(=O)[C@H](CO)NC(=O)[C@](C)(CO)NC(=O)[C@@H](NC(=O)[C@H](CC(=O)O)NC(=O)[C@H](CO)NC(=O)[C@@H](NC(=O)[C@](C)(Cc1ccccc1)NC(=O)[C@H](CO)NC(=O)CNC(=O)[C@H](CCC(=O)O)NC(=O)C(C)(C)NC(=O)[C@@H](N)Cc1c[nH]cn1)[C@@H](C)O)C(C)C)C(=O)N[C@@H](CCC(=O)O)C(=O)N[C@@H](C)C(=O)N[C@@H](C)C(=O)N[C@@](C)(CCCCN)C(=O)N[C@@H](CCC(=O)O)C(=O)N[C@@H](Cc1ccccc1)C(=O)N[C@H](C(=O)N[C@@H](CCCCNC(=O)COCCOCCNC(=O)COCCOCCNC(=O)CC[C@H](NC(=O)CCCCCCCCCCC)C(=O)O)C(=O)N[C@@H](Cc1ccccc1)C(=O)N[C@H](C(=O)N[C@H](C(=O)N[C@@H](CCC(=O)O)C(=O)NCC(=O)NCC(N)=O)C(C)C)C(C)C)[C@@H](C)CC)C(=O)O [compound 451] (H-H[Aib]EGS[αMeF]TSDV[αMeS]SYK([AEEA-AEEA-γGlu-Lauroyl])EK([AEEA-AEEA-γGlu-Lauroyl])EAA[αMeK]EFIK([AEEA-AEEA-γGlu-Lauroyl])FVVEGG-NH2; N-terminus assumed) |
| 240 pM | 51 pM | 147 pM | ≥ 94 nM | ≥ 28 nM | ≥ 94 nM | ≥ 28 nM |  |  |  |  |  | CCCCCCCCCCCCCCCC(=O)N[C@@H](CCC(=O)NCCCC[C@H](NC(=O)[C@H](C)NC(=O)[C@H](C)NC(=O)[C@H](CCC(=O)O)NC(=O)CNC(=O)[C@H](CCC(=O)O)NC(=O)[C@H](CC(C)C)NC(=O)[C@](C)(Cc1ccccc1)NC(=O)[C@H](CO)NC(=O)[C@H](CO)NC(=O)[C@@H](NC(=O)[C@H](CC(=O)O)NC(=O)[C@H](CO)NC(=O)[C@@H](NC(=O)[C@](C)(Cc1ccccc1)NC(=O)[C@H](CO)NC(=O)CNC(=O)[C@H](CCC(=O)O)NC(=O)C(C)(C)NC(=O)[C@@H](N)Cc1c[nH]cn1)[C@@H](C)O)C(C)C)C(=O)N[C@@H](CCC(=O)O)C(=O)N[C@@](C)(Cc1ccccc1)C(=O)N[C@H](C(=O)N[C@@H](C)C(=O)N[C@@](C)(Cc1ccccc1)C(=O)N[C@H](C(=O)N[C@H](C(=O)N[C@@H](CCCCN)C(=O)NCC(=O)NCC(N)=O)C(C)C)C(C)C)[C@@H](C)CC)C(=O)O [compound 41] |
